# Patent publication US20220313733A1, “METHOD FOR PRODUCING RENAL INTERSTITIAL CELL” (Kyoto University, priority 2019, published 2022)
# B1: PDGF-BB: platelet derived growth factor B chain homodimer (PeproTech, Inc., #100-14B) (protein, UniProt P01127 82-190, looked up)
# Platelet-derived growth …: SLGSLTIAEPAMIAECKTRTEVFEISRRLIDRTNANFLVWPPCVEVQRCSGCCNNRNVQCRPTQVQLRPVQVRKIEIVRKKPIFKKATVTLEDHLACKCETVAAARPVT
# How the values were obtained:
# Assay type in all cases: cell-based, human
# hNCCs = experiment: Hypoxic response of posteriorly shifted NCCs (hNCCs): EPO secreted into the medium; conditions: hNCCs on Day 18, 100 μM, 1 day after addition
# Experimental: EPO-producing cells are known to perform the production and secretion of EPO in response to HIF signals in a hypoxic environment. The hypoxic response of the hNCCs on Day 18 prepared in Example 1-3 was confirmed using two types of compounds that activated HIF signals (FG-2216: Selleck Chemicals #18382 and FG-4592: Selleck Chemicals #S1007, 100 μM each). Results of quantifying the amount of EPO secreted into the medium on 1 day after addition of FG-2216 or FG-4592 are shown in FIG. 3. The secretion of EPO into the medium was increased in response to hypoxic stimulation.
# [1] = test system: kidney organoid (Mini-kidney); experiment: EPO mRNA expression in kidney organoid (Mini-kidney) under hypoxic stimulation; conditions: Mini-kidney IM+RSP (D25), 100 μM
# Experimental: RNA was extracted from the kidney organoid on Day 25 from the start of coculture (Mini-kidney, IM+RSP (D25)) obtained in Example 4-3 and a kidney organoid containing no RSP (KiO (D25)), and libraries for transcriptome analysis were prepared using Ion AmpliSeq™ Transcriptome Human Gene Expression Kit (Thermo Fisher Scientific, Inc.: #A26326). The prepared libraries were subjected to sequencing analysis (Ion S5 XL sequencer, Thermo Fisher Scientific, Inc.) using Ion 54™ Chip Kit (Thermo Fisher Scientific, Inc., #A27765) to quantify the expression level of EPO mRNA. The significant expression of EPO mRNA was not seen in any of an iPS cell line, IM, and the kidney organoid containing no RSP (KiO (D25)). By contrast, the significant expression of EPO mRNA was confirmed in the Mini-kidney (IM+RSP (D25)). As a result of confirming the hypoxic response of the Mini-kidney in the same manner as in Example 1-4, the EPO expression level was increased by hypoxic stimulation (100 μM FG-4592) (IM+RSP (D25) +FG4592).
# RSCs [2] = experiment: Hypoxia-responsive ability of RSCs to produce EPO (mRNA, immunostaining); conditions: 100 μM
# Experimental: The RSPs obtained in Example 2 were inoculated at 2×10^3 cells/well to a 6-well plate coated with fibronectin, and cultured for 15 days in STEMdiff APEL2 medium (STEMCELL Technologies Inc., ST-05275) to obtain RSCs (Days 55 to 70). The hypoxia-responsive ability to produce EPO was confirmed as to the obtained RSCs. EPO-producing cells are known to perform the production and secretion of EPO in response to HIF signals in a hypoxic environment. The RSCs were treated with a compound that activated HIF signals (FG-4592, Selleck Chemicals, #S1007, 100 μM).
# [3] = test system: kidney organoid (Mini-kidney); experiment: Renal stromal cell marker mRNA expression in Mini-kidney under hypoxic stimulation; conditions: Mini-kidney IM+RSP (D25), 100 μM
# Description: The mRNA expression levels of renal stromal cell markers (desmin, vimentin, PDGFRβ and CD73) were quantified by the sequencing analysis of the libraries for transcriptomes prepared in Example 4-4. The expression of all the renal stromal cell markers was confirmed in the Mini-kidney (IM+RSP (D25)). As a result of confirming the hypoxic response of the Mini-kidney (IM+RSP (D25)) in the same manner as in Example 1-4, the expression levels of desmin and CD73 were decreased by hypoxic stimulation (100 μM FG-4592) (IM+RSP (D25)+FG4592).
# RSCs [4] = experiment: Screening system for a compound that improves a sustained fibrotic state (area of tdTomato-positive cells); conditions: 3, 10 or 30 μM added on D15, cultured to D24, after 10 ng/ml TGFβ1 D4 to D13
# Experimental: In FIG. 15, RSCs on day 4 of culture (D4) were treated with TGFβ1 (10 ng/ml) for 9 days (D13) and then further cultured in a TGFβ1-free medium (D15) for 2 days. SB431542 (3, 10 or 30 μM) was added to the medium of the cells on D15, and the cells were further cultured for 9 days (D24). […] “Cont” depicts a negative control (without SB addition).
# RSPs were inoculated at 3000 cells/well to a 384-well plate, and the induction of RSCs was started in STEMdiff APEL2 medium (STEMCELL Technologies Inc., ST-05275). On day 4 of culture (D4), fibrosis was induced by the addition of 10 ng/ml TGFβ1. During the culture period, the culture solution containing TGFβ1 was replaced with a fresh one every 3 days. On day 13 of culture (D13), TGFβ1 was removed from the medium, and culture was further continued for 2 days (D15). The TGF receptor inhibitor SB431542 (SB) was added as a test substance to the medium of the cells on D15, and the cells were further cultured for 9 days (D24). Then, the area of tdTomato-positive cells was determined.
# RSCs [5] = experiment: Evaluation of TGFβ1 response of RSCs (fibrosis, area of tdTomato-positive cells, αSMA)
# Experimental: In vivo renal stromal cells are known to cause differentiation into αSMA-positive myofibroblasts and hypertrophy (so-called fibrosis) in response to TGFβ1 stimulation. RSCs were obtained by the methods described in Examples 1, 2 and 3-1 from the EPO-emGFP/GAPDH-tdTomato (GAPDH-tdT) dual knock-in human iPS cell line obtained in Example 4-2 mentioned later. In the method described in Example 1, the RA concentration was set to 3 μM. RSCs on day 4 of culture (D4) were treated with TGFβ1 (0.01 to 10 ng/ml) for 9 days (D13), and the degree of fibrosis was evaluated by determining the ratio of tdTomato-positive cells using image analysis software Image J (NIH). Specifically, a fluorescently taken image was converted to 8 bits for binarization, and the whole area was divided into “area of cells” and “other areas (areas containing no cell)”. The proportion was calculated according to the expression “Area of cells”/“Whole area”.
# RSCs [6] = experiment: Fibrotic state of RSCs after removal of TGFβ1 from the medium
# Experimental: In FIG. 13, RSCs on day 4 of culture (D4) were treated with TGFβ1 (1 ng/ml) for 9 days (D13 TGF) and then further cultured in a TGFβ1-containing medium (D25 TGF+) or a TGFβ1-free medium (D25 TGF−) for 12 days. […] “D25 Cont” depicts a negative control (without TGFβ1 treatment).
# In FIG. 14, RSCs on day 4 of culture (D4) were treated with TGFβ1 (10 ng/ml) for 9 days (D13 TGF) and then further cultured in a TGFβ1-containing medium (D25 TGF+) or a TGFβ1-free medium (D25 TGF−) for 12 days. […] “D25 Cont” depicts a negative control (without TGFβ1 treatment).
# By exploiting this property of fibrosis of RSCs, a screening system for a compound that improved a sustained fibrotic state was constructed.
# fibronectin (FN1) = experiment: Biomarker search: LC/MS analysis of culture supernatant of RSCs with induced fibrosis; conditions: 10 ng/ml TGFβ1 for 9 days
# Experimental: RSPs were inoculated at 2×10^6 cells/dish to a 10 cm dish, and the induction of RSCs was started in STEMdiff APEL2 medium (STEMCELL Technologies Inc., ST-05275). On day 7 of culture (D7), 10 ng/ml TGFβ1 was added thereto, and the cells were further cultured for 9 days to induce fibrosis.
# The culture supernatant was recovered. After removal of albumin, IgG and IgA, a peptide fragment was obtained by acetone precipitation and trypsin digestion. The amino acid sequence of the peptide fragment was determined by LC/MS analysis.
# RSPs = experiment: Influence of bFGF, FGF9 and PDGF-BB on differentiation of RSPs into RSCs (number of cells, EPO ELISA)
# Experimental: The RSPs obtained in Example 2 were inoculated at 2×10^3 cells/well to a 6-well plate coated with fibronectin, and cultured for 15 days in STEMdiff APEL2 medium (STEMCELL Technologies Inc., ST-05275) to obtain RSCs (Days 55 to 70).
# The number of cells and the amount of EPO secreted into the medium which were obtained by adding 40 ng/ml bFGF, 200 ng/ml FGF9 (FUJIFILM Wako Pure Chemical Corp., #AF-100-23), and 10 ng/ml PDGF-BB (PeproTech, Inc., #100-14B) each alone or in combination to a medium were measured under the induction conditions of Example 3-1. EPO in the medium was measured by ELISA.
molecule,measurement,setting,value
O=C(O)CNC(=O)c1nc(Cl)c2ccccc2c1O [FG-2216],secretion of EPO into the medium,hNCCs,increased
Cc1nc(C(=O)NCC(=O)O)c(O)c2ccc(Oc3ccccc3)cc12 [FG-4592],secretion of EPO into the medium,hNCCs,increased
same,EPO expression level,[1],increased
same,expression of EPO in response to hypoxic stimulation,RSCs [2],found at the mRNA level and the protein level
same,expression level of CD73,[3],decreased
same,expression level of desmin,[3],decreased
"NC(=O)c1ccc(-c2nc(-c3ccc4c(c3)OCO4)c(-c3ccccn3)[nH]2)cc1 [SB431542, 4-[4-(1,3-benzodioxol-5-yl)-5-(2-pyridinyl)-1H-imidazol-2-yl]-benzamide]",fibrosis (area of tdTomato-positive cells),RSCs [4],marked suppression of fibrosis
same,cellular hypertrophy caused by TGFβ1,RSCs [5]; cotreatment with TGF receptor inhibitor,suppressed
"TGFβ1: isoform of transforming growth factor β, fibrosis-inducing substance",fibrotic state after removing TGFβ1 from the medium,RSCs [6]; fibrosis induced by 1 ng/ml TGFβ1,restored to non-fibrotic RSCs
same,fibrotic state after removal of TGFβ1 from the medium,RSCs [6]; fibrosis induced by 10 ng/ml TGFβ1,maintained the fibrotic state
same,FN1 detected in culture supernatant of treated cells as compared with untreated cells,fibronectin (FN1),about 10 times
same,"cellular hypertrophy, concentration dependence",RSCs [5]; TGFβ1 0.01 to 10 ng/ml for 9 days,caused in a TGFβ1 concentration-dependent manner
same,differentiation into αSMA-positive myofibroblasts and cellular hypertrophy,RSCs [5]; TGFβ1 0.01 to 10 ng/ml for 9 days (D4 to D13),found
bFGF: basic fibroblast growth factor (FUJIFILM Wako Pure Chemical Corp.),proliferation of the cells,RSPs; 40 ng/ml bFGF added to STEMdiff APEL2 medium,promoted
B1,amount of EPO secreted,RSPs; 10 ng/ml PDGF-BB added to STEMdiff APEL2 medium,increased
